Structures are written as SMILES. Active and inactive are the calls of the source. How the calls were made is not given here.

Data on 6 molecules can be found in PubChem BioAssay AID1259407 (Chemical Carcinogenesis Research Information System (CCRIS), 2018).

The data set concerns CCRIS mutagenicity, Ames/micronucleus/aberration tests. The experiment in a line: CCRIS mutagenicity studies.
The mark [1] stands for this setting: Test System: AMES SALMONELLA TYPHIMURIUM, Strain/Indicator: TA98, Metabolic Activation: NONE, Method: PREINCUBATION
Where [2] appears, read: Test System: AMES SALMONELLA TYPHIMURIUM, Strain/Indicator: TA100, Metabolic Activation: NONE, Method: PREINCUBATION
Setting [3] is: Test System: AMES SALMONELLA TYPHIMURIUM, Strain/Indicator: TA1535, Metabolic Activation: NONE, Method: STANDARD PLATE.
Where [4] appears, read: Test System: AMES SALMONELLA TYPHIMURIUM, Strain/Indicator: TA100, Metabolic Activation: NONE, Method: STANDARD PLATE.

As to `Cc1cc(/C=C/c2ccc3cc(N(C)C)ccc3[n+]2C)c(C)n1-c1ccccc1`, the mutagenic call is “active; positive” (Test System: AMES SALMONELLA TYPHIMURIUM, Strain/Indicator: TA98, Metabolic Activation: HUMAN, LIVER, S-9, Method: STANDARD PLATE); “active; positive” under setting [1]; “active; positive” (Test System: AMES SALMONELLA TYPHIMURIUM, Strain/Indicator: TA98, Metabolic Activation: RAT, LIVER, S-9, AROCLOR 1254, Method: PREINCUBATION); “active; positive” (Test System: AMES SALMONELLA TYPHIMURIUM, Strain/Indicator: TA100, Metabolic Activation: HUMAN, LIVER, S-9, Method: STANDARD PLATE); “active; positive” under setting [2]; “active; positive” (Test System: AMES SALMONELLA TYPHIMURIUM, Strain/Indicator: TA100, Metabolic Activation: RAT, LIVER, S-9, AROCLOR 1254, Method: PREINCUBATION). For the same molecule, the mutagenic call under setting [3] was “inactive; negative”; the mutagenic call (Test System: AMES SALMONELLA TYPHIMURIUM, Strain/Indicator: TA1535, Metabolic Activation: RAT, LIVER, S-9, AROCLOR 1254, Method: STANDARD PLATE) was “inactive; negative”; the mutagenic call (Test System: AMES SALMONELLA TYPHIMURIUM, Strain/Indicator: TA1537, Metabolic Activation: NONE, Method: STANDARD PLATE) was “inactive; negative”; the mutagenic call (Test System: AMES SALMONELLA TYPHIMURIUM, Strain/Indicator: TA1537, Metabolic Activation: RAT, LIVER, S-9, AROCLOR 1254, Method: STANDARD PLATE) was “inactive; negative”; the mutagenic call (Test System: AMES SALMONELLA TYPHIMURIUM, Strain/Indicator: TA1538, Metabolic Activation: NONE, Method: STANDARD PLATE) was “inactive; negative”; the mutagenic call (Test System: AMES SALMONELLA TYPHIMURIUM, Strain/Indicator: UTH8413, Metabolic Activation: NONE, Method: PREINCUBATION) was “inactive; negative”. Besides, the mutagenic call runs as follows: (Test System: AMES SALMONELLA TYPHIMURIUM, Strain/Indicator: UTH8414, Metabolic Activation: NONE, Method: PREINCUBATION) “active; positive”; (Test System: AMES SALMONELLA TYPHIMURIUM, Strain/Indicator: UTH8414, Metabolic Activation: RAT, LIVER, S-9, AROCLOR 1254, Method: PREINCUBATION) “active; positive”.

As for `CCOS(=O)(=O)OCC`, the mutagenic call (End Point: IN VITRO CHROMOSOMAL ABERRATIONS, Test System: CHL CELLS, Metabolic Activation: RAT, LIVER, S-9, SODIUM PHENOBARBITAL AND 5,6-BENZOFLAVONE) is “active; positive (structural changes)”; the mutagenic call (End Point: In vitro micronucleus, Test System: Chinese Hamster Ovary (CHO-WBL) cells, Metabolic Activation: None) is “active; positive (p<0.01)”; the mutagenic call under setting [1] is “active; positive”; the mutagenic call (Test System: AMES SALMONELLA TYPHIMURIUM, Strain/Indicator: TA98, Metabolic Activation: RAT LIVER S-9, PHENOBARBITAL AND BETA-NAPHTHOFLAVONE, Method: PREINCUBATION) was “active; positive”; the mutagenic call under setting [2] is “active; positive”; the mutagenic call under setting [4] was “active; positive”. In addition, the mutagenic call (Test System: AMES SALMONELLA TYPHIMURIUM, Strain/Indicator: TA100, Metabolic Activation: RAT LIVER S-9, PHENOBARBITAL AND BETA-NAPHTHOFLAVONE, Method: PREINCUBATION) is “active; positive”; the mutagenic call (Test System: AMES SALMONELLA TYPHIMURIUM, Strain/Indicator: TA1535, Metabolic Activation: NONE, Method: PREINCUBATION) is “active; positive”; the mutagenic call under setting [3] is “active; positive”; the mutagenic call (Test System: AMES SALMONELLA TYPHIMURIUM, Strain/Indicator: TA1535, Metabolic Activation: RAT LIVER S-9, PHENOBARBITAL AND BETA-NAPHTHOFLAVONE, Method: PREINCUBATION) was “active; positive”; the mutagenic call (Test System: AMES SALMONELLA TYPHIMURIUM, Strain/Indicator: TA1537, Metabolic Activation: NONE, Method: PREINCUBATION) is “active; positive”; the mutagenic call (Test System: AMES SALMONELLA TYPHIMURIUM, Strain/Indicator: TA1537, Metabolic Activation: RAT LIVER S-9, PHENOBARBITAL AND BETA-NAPHTHOFLAVONE, Method: PREINCUBATION) is “active; positive”. Moreover, the mutagenic call runs as follows: (Test System: CHINESE HAMSTER OVARY, Strain/Indicator: CHO-K1-BH4 (HGPRT), Metabolic Activation: NONE, Method: STANDARD PLATE) “active; positive”; (Test System: CHINESE HAMSTER V-79, Strain/Indicator: V-79/6-THIOGUANINE, Metabolic Activation: NONE, Method: FLASK ASSAY) “active; positive”; (Test System: E.COLI, Strain/Indicator: WP2UVRA, Metabolic Activation: NONE, Method: PREINCUBATION) “active; positive”; (Test System: E.COLI, Strain/Indicator: WP2UVRA, Metabolic Activation: RAT LIVER S-9, PHENOBARBITAL AND BETA-NAPHTHOFLAVONE, Method: PREINCUBATION) “active; positive”.

As to `Cc1ccc2[nH]c3c(C)ccc(C)c3c2c1`, the mutagenic call is “inactive; negative” (Test System: AMES SALMONELLA TYPHIMURIUM, Strain/Indicator: TA98, Metabolic Activation: NONE, Method: STANDARD PLATE); “active; positive” (Test System: AMES SALMONELLA TYPHIMURIUM, Strain/Indicator: TA98, Metabolic Activation: RAT LIVER S-9, AROCLOR 1254, Method: STANDARD PLATE); “inactive; negative” under setting [4]; “inactive; negative” (Test System: AMES SALMONELLA TYPHIMURIUM, Strain/Indicator: TA100, Metabolic Activation: RAT LIVER S-9, AROCLOR 1254, Method: STANDARD PLATE).

Regarding `CC1(C)CC(C(N)=O)C(C)(C)N1[O]` (stereo not given), the mutagenic call under setting [4] is “inactive; negative”.

With `COc1ccc2c(c1)-c1c(OC)c(OC)cc3c1C(C2=O)N(C)CC3` (stereo not given), the mutagenic call (Test System: AMES SALMONELLA TYPHIMURIUM, Strain/Indicator: TA100, Metabolic Activation: RAT, LIVER, S-9, PHENOBARBITAL AND BETA-NAPHTHOFLAVONE, Method: PREINCUBATION) was “inactive; negative”.

`CN1CCN(C)CC1`: the mutagenic call under setting [1] was “inactive; negative”; the mutagenic call (Test System: AMES SALMONELLA TYPHIMURIUM, Strain/Indicator: TA98, Metabolic Activation: RAT, LIVER, S-9, PCB, Method: PREINCUBATION) is “inactive; negative”; the mutagenic call under setting [2] was “inactive; negative”; the mutagenic call (Test System: AMES SALMONELLA TYPHIMURIUM, Strain/Indicator: TA100, Metabolic Activation: RAT, LIVER, S-9, PCB, Method: PREINCUBATION) is “inactive; negative”.
